Data taken from patent US5387709A, “Substituted sulfonamides, process of preparation and medicines containing same” (Lipha Lyonnaise Industrielle Pharmaceutique, priority 1990, dated 1995).

Key:
platelets of guinea-pig = assay: Inhibition of the platelet aggregation induced by U46619 (BORN test), guinea-pig platelets; assay type: cell-based; settings: Cavia porcellus, Platelet, read-out: PLATELET AGGREGATION GUINEA-PIG IC 50
From the text: (A) Inhibition of the platelet aggregation induced by U46619, a stable analogue of TXA2 (9,11-dideoxy-11α,9α-epoxymethanoprostaglandine F2 α):
The tests determine a concentration of compound which inhibits at 50% (CI50) a liminar aggregation induced by U46619. The activities of the compounds of the present invention are given in example 108.
(§1) The products of examples 1 to 107 have been tested for platelet aggregation on guinea-pig and on the contraction of the aorta in rat as described previously.

rat aorta = assay: Inhibition of the U46619 induced rat aorta vasoconstriction; assay type: cell-based; settings: Rattus norvegicus, contraction by U46619 (142 nM), rat thoracic aorta, 37° C.; read-out: VASOCONSTRICTION RAT AORTA IC 50
Protocol: (B) Inhibition of the U46619 induced rat aorta vasoconstriction:
male rats weighing about 300 g are put to death by euthanasia; the thoracic aorta is rapidly taken out. A sample of about 1 cm is cut into a spiral, and placed in a vat containing 20 ml of nutrient medium (Krebs-Henseleit) kept a 37° C. and oxygenated (O2 95%, CO2 5%). The contractions are recorded with an isotonic strain gauge. After a rest of 45 mn, supramaximum contractions are provoked by the addition of an analogue of TXA2 (U46619: 142 nM) to the survival medium. A plateau is generally reached after 10 mn of contact, the latter not exceeding 25 mn. A rest of 30 mn and a plurality of rinses take place after each contraction. The products are added 10 mn after U46619 and allowed to rest 15 mn, after which delay the inhibition is measured. The inhibitory concentration 50 (IC) is determined for each compound studied and on a minimum of 3 aortas. The activities of the compounds of the present invention are described in example 108.
as §1

Structure (SMILES) | IC50 (platelets of guinea-pig) | IC50 (rat aorta)
O=C(O)Cc1ccc(C2(CNS(=O)(=O)c3ccc(Cl)cc3)CCC2)cc1 [Example 13, 4-[1[[[(4-Chlorophenyl)sulfonyl]amino]methyl]cyclobutyl]benzeneacetic acid] | 0.68 µM | 0.06 µM
O=C(O)Cc1ccc(C2(CNS(=O)(=O)c3ccc(Cl)cc3)CCCC2)cc1 [Example 14, 4-[1-[[[(4-Chlorophenyl)sulfonyl]amino]methyl]cyclopentyl]benzeneacetic acid] | 5.5 µM | 0.07 µM
O=C(O)Cc1ccc(CC2(CNS(=O)(=O)c3ccccc3)CCCC2)cc1 [Example 15, 4-[[1-[[[(Phenyl)sulfonyl]amino]methyl]cyclopentyl]methyl]benzeneacetic acid] | 1.1 µM | 0.3 µM
O=C(O)Cc1ccc(CC2(CNS(=O)(=O)c3ccc(F)cc3)CCCC2)cc1 [Example 16, 4-[[1-[[[(4-Fluorophenyl)sulfonyl]amino]methyl]cyclopentyl]methyl]benzeneacetic acid] | 2.4 µM | 0.2 µM
CC(=O)c1ccc(CC2(CNS(=O)(=O)c3ccc(Cl)cc3)CCCC2)cc1 [Example 17, N-[[1-[(4-Acetylphenyl)methyl]cyclopentyl]methyl]-4-chlorobenzenesulfonamide] | > 20 µM | > 1 µM
COC(=O)Cc1ccc(CC2(CNS(=O)(=O)c3ccc(Cl)cc3)CCCC2)cc1 [Example 18, Methyl 4-[[1-[[[(4-chlorophenyl)sulfonyl]amino]methyl]cyclopentyl]methyl]benzeneacetate] | 0.66 µM | > 1 µM
O=C(O)Cc1ccc(CC2(CNS(=O)(=O)c3ccc(Cl)cc3)CCCC2)cc1 [Example 19, 4-[[1-[[[(4-Chlorophenyl)sulfonyl]amino]methyl]cyclopentyl]methyl]benzeneacetic acid] | 0.26 µM | 0.1 µM
Cc1ccc(S(=O)(=O)NCC2(Cc3ccc(CC(=O)O)cc3)CCCC2)cc1 [Example 24, 4-[[1-[[[(4-methylphenyl)sulfonyl]amino]methyl]cyclopentyl]methyl]benzeneacetic acid] | 0.57 µM | 0.3 µM
O=C(O)c1ccc(CC2(CNS(=O)(=O)c3ccc(Cl)cc3)CCCC2)cc1 [Example 25, 4-[[1-[[[(4-Chlorophenyl)sulfonyl]amino]methyl]cyclopentyl]methyl]benzoic acid] | 1.5 µM | 0.06 µM
O=C(O)Cc1ccc(CC2(CNS(=O)(=O)c3ccc(Cl)c(Cl)c3)CCCC2)cc1 [Example 26, 4-[[1-[[[(3,4-Dichlorophenyl)sulfonyl]amino]methyl]cyclopentyl]methyl]benzeneacetic acid] | 3.1 µM | 0.46 µM
O=C(O)Cc1ccc(CC2(CNS(=O)(=O)c3ccc(Cl)cc3)CCC2)cc1 [Example 27, 4-[[1-[[[(4-chlorophenyl)sulfonyl]amino]methyl]cyclobutyl]methyl]benzeneacetic acid] | 0.29 µM | 0.02 µM
O=S(=O)(NCC1(Cc2ccc(CCO)cc2)CCCC1)c1ccc(Cl)cc1 [Example 28, 4-Chloro-N-[[1-[[4-(2-hydroxyethyl)phenyl]methyl]cyclopentyl]methyl]benzenesulfonamide] | 2.6 µM | > 1 µM
O=C(O)Cc1ccc(C2(CNS(=O)(=O)c3ccc(Cl)cc3)CCCCC2)cc1 [Example 29, 4-[1-[[[(4-Chlorophenyl)sulfonyl]amino]methyl]cyclohexyl]benzeneacetic acid] | 5.3 µM | 1 µM
O=C(O)CCC(=O)c1ccc(CC2(CNS(=O)(=O)c3ccc(Cl)cc3)CCCC2)cc1 [Example 30, 4-[4-[[1-[[[(4-Chlorophenyl)sulfonyl]amino]methyl]cyclopentyl]methyl]phenyl]-4-oxobutanoic acid] | 0.92 µM | 1 µM
O=C1CCC(c2ccc(CC3(CNS(=O)(=O)c4ccc(Cl)cc4)CCCC3)cc2)=NN1 [Example 31, 4-Chloro-N-[[1-[[4-(4,5-dihydro-3-oxo-2H-pyridazin-6-yl)phenyl]methyl]cyclopentyl]methyl]-benzenesulfonamide] | 2.5 µM | ≥ 1 µM
O=C(O)Cc1ccc(CC2(CNS(=O)(=O)c3ccccc3Cl)CCCC2)cc1 [Example 32, 4-[[1-[[[(2-Chlorophenyl)sulfonyl]amino]methyl]cyclopentyl]methyl]benzeneacetic acid] | 1.8 µM | 0.4 µM

Results, then the compound that gave them:

IC50 (platelets of guinea-pig) | IC50 (rat aorta) | Structure (SMILES)
> 5 µM | > 1 µM | O=S(=O)(NCC1(Cc2ccc(CCO)cc2)CCCC1)c1cccc(Cl)c1 [Example 33, 3-Chloro-N-[[1-[[4-(2-hydroxyethyl)phenyl]methyl]cyclopentyl]methyl]benzenesulfonamide]
> 5 µM | > 1 µM | CC(=O)c1ccc(S(=O)(=O)NCC2(Cc3ccc(CCO)cc3)CCCC2)cc1 [Example 43, 4-Acetyl-N-[[1-[[4-(2-hydroxyethyl)phenyl]methyl]cyclopentyl]methyl]-benzenesulfonamide]
> 5 µM | > 1 µM | O=C(O)Cc1ccc(CC2(CNS(=O)(=O)c3cccc(Cl)c3)CCCC2)cc1 [Example 52, 4-[[1-[[[(3-Chlorophenyl)sulfonyl]amino]methyl]cyclopentyl]methyl]benzeneacetic acid]
0.16 µM | 0.01 µM | O=C(O)Cc1ccc(CC2(CNS(=O)(=O)c3ccc(Br)cc3)CCCC2)cc1 [Example 53, 4-[[1-[[[(4-Bromophenyl)sulfonyl]amino]methyl]cyclopentyl]methyl]benzeneacetic acid]
1.1 µM | 0.04 µM | O=C(O)Cc1ccc(CC2(CNS(=O)(=O)c3ccc(I)cc3)CCCC2)cc1 [Example 54, 4-[[1-[[[(4-Iodophenyl)sulfonyl]amino]methyl]cyclopentyl]methyl]benzeneacetic acid]
2.9 µM | 0.1 µM | O=C(O)Cc1ccc(CC2(CNS(=O)(=O)c3ccc(C(F)(F)F)cc3)CCCC2)cc1 [Example 55, 4-[[1-[[[(4-Trifluoromethylphenyl)sulfonyl]amino]methyl]cyclopentyl]methyl]benzeneacetic acid]
5 µM | 1 µM | O=C(O)Cc1ccc(CC2(CNS(=O)(=O)c3cccc(C(F)(F)F)c3)CCCC2)cc1 [Example 56, 4-[[1-[[[(3-Trifluoromethylphenyl)sulfonyl]amino]methyl]cyclopentyl]methyl]benzeneacetic acid]
0.69 µM | 0.1 µM | N#Cc1ccc(S(=O)(=O)NCC2(Cc3ccc(CC(=O)O)cc3)CCCC2)cc1 [Example 57, 4-[[1-[[[(4-Cyanophenyl)sulfonyl]amino]methyl]cyclopentyl]methyl]benzeneacetic acid]
6.3 µM | 1 µM | O=C(O)Cc1ccc(CC2(CNS(=O)(=O)c3cccc([N+](=O)[O-])c3)CCCC2)cc1 [Example 58, 4-[[1-[[[(3-Nitrophenyl)sulfonyl]amino]methyl]cyclopentyl]methyl]benzeneacetic acid]
1.4 µM | 0.08 µM | O=C(O)Cc1ccc(CC2(CNS(=O)(=O)c3ccc(Cl)cc3Cl)CCCC2)cc1 [Example 59, 4-[[1-[[[(2,4-Dichlorophenyl)sulfonyl]amino]methyl]cyclopentyl]methyl]benzeneacetic acid]
> 5 µM | > 1 µM | CC(C)c1ccc(S(=O)(=O)NCC2(Cc3ccc(CC(=O)O)cc3)CCCC2)cc1 [Example 60, 4-[[1-[[[[4-(1-Methylethyl)phenyl]sulfonyl]amino]methyl]cyclopentyl]methyl]benzeneacetic acid]
> 5 µM | > 1 µM | CC(C)(C)c1ccc(S(=O)(=O)NCC2(Cc3ccc(CC(=O)O)cc3)CCCC2)cc1 [Example 61, 4-[[1-[[[[4-(1,1-Dimethylethyl)phenyl]sulfonyl]amino]methyl]cyclopentyl]methyl]benzeneacetic acid]
3 µM | 0.75 µM | CC(=O)c1ccc(S(=O)(=O)NCC2(Cc3ccc(CC(=O)O)cc3)CCCC2)cc1 [Example 62, 4-[[1-[[[(4-Acetylphenyl)sulfonyl]amino]methyl]cyclopentyl]methyl]benzeneacetic acid]
> 5 µM | > 1 µM | CS(=O)(=O)c1ccc(S(=O)(=O)NCC2(Cc3ccc(CC(=O)O)cc3)CCCC2)cc1 [Example 63, 4-[[1-[[[(4-Methylsulfonylphenyl)sulfonyl]amino]methyl]cyclopentyl]methyl]benzeneacetic acid]
2.6 µM | 0.13 µM | O=C(O)Cc1ccc(CC2(CNS(=O)(=O)c3ccc(OC(F)(F)F)cc3)CCCC2)cc1 [Example 64, 4-[[1-[[[(4-Trifluoromethoxyphenyl)sulfonyl]amino]methyl]cyclopentyl]methyl]benzeneacetic acid]
0.35 µM | 0.27 µM | COc1ccc(S(=O)(=O)NCC2(Cc3ccc(CC(=O)O)cc3)CCCC2)cc1 [Example 65, 4-[[1-[[[(4-Methoxyphenyl)sulfonyl]amino]methyl]cyclopentyl]methyl]benzeneacetic acid]
